Results taken from article PMC5201331, “Subchronic Toxicities of HZ1006, a Hydroxamate-Based Histone Deacetylase Inhibitor, in Beagle Dogs and Sprague-Dawley Rats” (International Journal of Environmental Research and Public …, 2016).

How the values were obtained:
Format in all cases: in vivo, Sprague-Dawley (SD) rats
SD rats [1] = assay: Subchronic toxicity test in SD rats: hematology; settings: for APTT / FIB / Lym / Neu / WBC: female rats; for RET: male rats
Protocol: The rats that were judged suitable for the subchronic toxicity study were randomly divided into four groups (10 rats/sex/group). The rats received the test sample by gavage once daily for 28 days. HZ1006 was administered to the rats at doses of 120, 60, 20 and 0 (control) mg/kg, and the dosage volume was 5 mL/kg. Half of the 80 rats (half male and half female) were selected randomly according to body weight and dissected at d28. The remaining rats were dissected at […]. The following indexes were examined for the dogs used in the study, twice during the pre-dosage period and on d14, d28 and […]. The following parameters were evaluated on d28 and […] for the rats in the study: Blood samples of the animals were collected in tubes containing ethylenediamine tetraacetic acid (EDTA) and tested using an ADVIA2120 Hematology Autoanalyzer (Bayer, Leverkusen, Germany). The following indexes were examined: hemoglobin concentration (Hb), red blood cell count (RBC),mean corpuscular volume (MCV), hematocrit (HCT), mean corpuscular hemoglobin concentration (MCHC), mean corpuscular hemoglobin (MCH), white blood cell count (WBC), platelet count (Plt), WBC differential counts [neutrophilcyte (Neu), eosinophilic granulocyte (Eos), basophilic leukocyte (Bas), lymphocyte (Lym), and monocyte (Mon)] and reticulocytes (Ret). The serum coagulation times of the blood samples (1.8-mL samples were mixed with 0.2 mL sodium citrate), including prothrombin time (PT), fibrinogen (FIB), activated partial thromboplastin time (APTT), and thrombin time (TT), were tested using an MC10 plus Blood Coagulation Analyzer from Shanghai San Jose Medical Products Co., Ltd. (Shanghai, China).

[2] = Subchronic toxicity test in SD rats: overall (NOAEL, urinalysis, bone marrow, histopathology); settings: both sexes, Sprague-Dawley, rat, in vivo, daily oral administration, read-out: NOAEL (No Observed Adverse Effect Level)
Protocol: (§1) The rats that were judged suitable for the subchronic toxicity study were randomly divided into four groups (10 rats/sex/group). The rats received the test sample by gavage once daily for 28 days. HZ1006 was administered to the rats at doses of 120, 60, 20 and 0 (control) mg/kg, and the dosage volume was 5 mL/kg. Half of the 80 rats (half male and half female) were selected randomly according to body weight and dissected at d28. The remaining rats were dissected at d42.
(§2) A Micro AUTION MA-4260 Autoanalyzer from Arkray Global Business, Inc. (kyoto, Japan), was used to analyze the animal urine samples. Parameters such as pH, specific gravity, nitrites, leukocytes, glucose, protein, urobilinogen, ketones, occult blood, bilirubin, and hemoglobin were tested.
(§3) Bone marrow samples were obtained according to the methods reported previously. We classified the bone marrow cells by immersion objective. […]

SD rats [3] = assay: as above; settings: daily oral administration, 28 days
Protocol: as §1, §2, §3

[4] = 20 mg/kg oral daily, d42 (recovery)
[5] = 60 mg/kg oral daily, d42 (recovery)
[6] = 120 mg/kg oral daily, d42 (recovery)

`CCCCCCCNc1cc(/C=C/C(=O)NO)ccc1OCCN(CC)CC` [HZ1006] showed an APTT (SD rats [1]; 20 mg/kg oral daily, d28) of 24.3 ± 3.5 s, an FIB (SD rats [1]; 20 mg/kg oral daily, d28) of 1.87 ± 0.09 g/L and a Lym (SD rats [1]; 20 mg/kg oral daily, d28) of 88.38 ± 1.68%. For the same molecule, the Neu (SD rats [1]; 20 mg/kg oral daily, d28) was 8.70 ± 1.72%, the WBC (SD rats [1]; 20 mg/kg oral daily, d28) was 3.17 ± 1.23 ×10^9·L^−1 and the APTT (SD rats [1]; [4]) was 22.2 ± 3.0 s. For the same molecule, the FIB (SD rats [1]; [4]) was 1.62 ± 0.17 g/L, the Lym (SD rats [1]; [4]) was 85.40 ± 3.85% and the Neu (SD rats [1]; [4]) was 11.58 ± 4.04%. The WBC (SD rats [1]; [4]) was 2.68 ± 0.63 ×10^9·L^−1, the APTT (SD rats [1]; 60 mg/kg oral daily, d28) was 23.0 ± 2.4 s and the FIB (SD rats [1]; 60 mg/kg oral daily, d28) was 1.89 ± 0.06 g/L. For the same molecule, the Lym (SD rats [1]; 60 mg/kg oral daily, d28) was 84.70 ± 5.45%, the Neu (SD rats [1]; 60 mg/kg oral daily, d28) was 12.08 ± 4.77% and the WBC (SD rats [1]; 60 mg/kg oral daily, d28) was 2.82 ± 0.60 ×10^9·L^−1. The APTT (SD rats [1]; [5]) was 25.2 ± 1.3 s, the FIB (SD rats [1]; [5]) was 1.62 ± 0.18 g/L and the Lym (SD rats [1]; [5]) was 85.36 ± 6.93%. The Neu (SD rats [1]; [5]) was 12.06 ± 6.70%, the WBC (SD rats [1]; [5]) was 2.53 ± 0.60 ×10^9·L^−1 and the APTT (SD rats [1]; 120 mg/kg oral daily, d28) was 22.6 ± 2.4 s. It also gave an FIB (SD rats [1]; 120 mg/kg oral daily, d28) of 2.01 ± 0.40 g/L, a Lym (SD rats [1]; 120 mg/kg oral daily, d28) of 77.22 ± 8.78% and a Neu (SD rats [1]; 120 mg/kg oral daily, d28) of 19.28 ± 8.26%. For the same molecule, the WBC (SD rats [1]; 120 mg/kg oral daily, d28) was 3.95 ± 0.77 ×10^9·L^−1, the APTT (SD rats [1]; [6]) was 25.2 ± 1.6 s and the FIB (SD rats [1]; [6]) was 1.85 ± 0.12 g/L. For the same molecule, the Lym (SD rats [1]; [6]) was 85.88 ± 1.85%, the Neu (SD rats [1]; [6]) was 10.76 ± 1.81% and the WBC (SD rats [1]; [6]) was 3.00 ± 0.43 ×10^9·L^−1. For the same molecule, the RET (SD rats [1]; 20 mg/kg oral daily, d28) was 1.88 ± 0.32%, the RET (SD rats [1]; [4]) was 1.92 ± 0.31% and the RET (SD rats [1]; 60 mg/kg oral daily, d28) was 1.43 ± 0.22%. The RET (SD rats [1]; [5]) was 1.82 ± 0.43%, the RET (SD rats [1]; 120 mg/kg oral daily, d28) was 2.04 ± 0.31 % and the RET (SD rats [1]; [6]) was 2.16 ± 0.22%. It also gave an NOAEL at 28 days [2] of 60 mg/kg and a minimum toxic dose (SD rats [3]) of 120 mg/kg.
